For this test, the target named is T1, MdtM (Escherichia coli, UniProt P39386).
T1 construct: full ORF in modified pBAD/Myc-His A, decaHis tag removed with thrombin; expressed in E. coli LMG194; IMAC with ATP wash to remove chaperonin, SEC in DDM; ~45 kDa; monomer
Kind of test: intrinsic tryptophan fluorescence quenching. Type of test: binding.

T1 sequence (P39386 whole entry): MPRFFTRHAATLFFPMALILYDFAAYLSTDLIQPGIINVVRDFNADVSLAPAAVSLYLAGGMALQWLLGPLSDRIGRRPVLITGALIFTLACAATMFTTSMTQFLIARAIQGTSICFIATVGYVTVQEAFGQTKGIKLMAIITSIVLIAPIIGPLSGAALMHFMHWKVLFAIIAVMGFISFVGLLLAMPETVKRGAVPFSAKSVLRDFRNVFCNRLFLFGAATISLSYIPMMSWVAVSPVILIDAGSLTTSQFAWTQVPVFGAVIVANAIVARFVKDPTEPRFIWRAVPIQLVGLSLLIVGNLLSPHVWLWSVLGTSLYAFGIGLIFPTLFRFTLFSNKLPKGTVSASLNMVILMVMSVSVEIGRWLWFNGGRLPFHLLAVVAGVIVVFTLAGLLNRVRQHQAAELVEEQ

Take `O=C(N[C@H](CO)[C@H](O)c1ccc([N+](=O)[O-])cc1)C(Cl)Cl` [chloramphenicol]: the Kd stood at 36 ± 3 nM.

By Kd is commonly meant the concentration at which binding is half-saturated. Low readings indicate a tighter complex, high ones a looser complex.
